#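 Values below derive from 48-hour exposures of cells grown in 96-well plates, with endpoints linearly interpolated between the two concentrations bracketing the appropriate inhibition level. At the GI50, growth is halved. TGI marks complete inhibition of growth.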
# Tested on: SF-268 CNS
# Assay: NCI tumour cell line growth inhibition, 48 h
Structure (SMILES),TGI,GI50
C=CCC1(C)CCCCC1(O)CS(=O)c1ccccc1 (centres undefined),> 100 µM,
C1COCCSC2=C(SCCO1)SC(=C1SC3=C(SCCOCCOCCS3)S1)S2,> 100 µM,
CC(C)(C)c1cc(C(=O)/C=C/c2ccc(C(=O)O)cc2)cc(C(C)(C)C)c1,6.82 µM,
COc1cc(/C=N\O[Si](C)(C)C(C)(C)C)ccc1O[Si](C)(C)C(C)(C)C,> 100 µM,
CC12CCC(=O)N1c1cccnc1N2 (centres undefined),> 100 µM,
COc1cc2c(cc1OC)C1Cc3cc(OC)c(OC)cc3N1CC2 (centres undefined),> 100 µM,
Cc1sc2c(c1C)C(c1ccc(Cl)cc1)=N[C@@H](CC(=O)Nc1ccc(OCCOCCOCCOCCNc3cccc4c3C(=O)N(C3CCC(=O)NC3=O)C4=O)cc1)c1nnc(C)n1-2 (some centres undefined),> 100 µM,0.254 µM
O=C1C2[C@@H](C(=O)N1c1ccc(Br)cc1)C13C(=CC2([N+](=O)[O-])[C@@H]2C(=O)N(c4ccc(Br)cc4)C(=O)[C@@H]21)c1ccccc1N3c1ccccc1 (some centres undefined),24.2 µM,
CCOC(=O)C1=C(Nc2ccc(Br)cc2)OCC1=O,> 100 µM,
CCOc1ccc(N=Cc2c3ccccc3nc3ccccc23)cc1,> 100 µM,
Nc1ccc(C2=N/C(=C\c3cccc(N)c3)C(=O)O2)cc1,> 100 µM,
CC(=O)[CH-]C(=O)c1ccccc1.CC(=O)[CH-]C(=O)c1ccccc1.O=S(=O)([O-])c1cc([O-])c2c([O-])cc(S(=O)(=O)[O-])cc2c1.[Na+].[Ti+4],> 100 µM,> 100 µM
Cc1cc(NCCCCNc2ccnc3cc(Cl)ccc23)nc(Nc2ccc(C(=O)N3CCCCC3)cc2)n1,3.64 µM,1.77 µM
NCCN.O=C([O-])[O-].O=C([O-])[O-].[Co+3].[K+],> 100 µM,> 100 µM
C1=NC(N(Cc2ccccc2)Cc2ccccc2)N(Cc2ccccc2)N1 (centres undefined),47.4 µM,

# Tested on: SW-620 colon
# Assay: NCI tumour cell line growth inhibition, 48 h
Structure (SMILES),TGI,GI50
CCc1cccc(C)c1NC(=O)CC1C(=O)Nc2ccccc2S1=O (centres undefined),> 100 µM,
Cc1ccc(N2C(=O)N(c3ccc(C)cc3)C3(SC=NN3C)C2=O)cc1 (centres undefined),> 100 µM,
COc1ccc(-c2nn(-c3cccc(Cl)c3)cc2-c2nc(N)[nH]c(=O)c2C#N)cc1,34.2 µM,4.38 µM
O=C1c2ccc3c4ccccc4n(-c4ccccc4)c3c2C(=O)N1c1ccc(Cl)cc1,> 100 µM,
Cc1ccc2c(c1-c1ccccc1)C(=O)OC2,> 100 µM,
CCC[CH2][Sn]1([CH2]CCC)[O]CC(COc2c(Cl)cc(Cl)cc2Cl)[O]1 (centres undefined),2.62 µM,1.13 µM
NC(CCc1ncc(C(=O)O)s1)C(=O)O (centres undefined),> 100 µM,
CSc1ccc2c(cc1=O)[C@@H](NC(=O)c1cc(O)c(O)c(O)c1)CCc1cc(O)c(O)c(O)c1-2,39.6 µM,
COC(=O)C(=O)CC(=O)c1cccc(OC)c1,> 100 µM,
COc1cc2c3c(n(CCCN(CCO)CCO)c(=O)c2cc1OC)-c1cc2c(cc1C3=O)OCO2,1.71 µM,< 0.01 µM
CNCCn1c(=O)c2cc(OC)c(OC)cc2c2cnc3cc4c(cc3c21)OCO4,1.95 µM,0.0121 µM
O=C(CCN1CCOCC1)Nc1cccc(-n2cc(-c3ccncc3)c(-c3ccc(Cl)c(O)c3)n2)c1,12.6 µM,1.56 µM
COc1cc(-c2nnc3n2NC=C(C(=O)O)S3)cc(OC)c1OC,> 62 µM,
c1ccc(NCCSc2nc3ccccc3s2)cc1,> 100 µM,
Oc1ccc(Oc2cnc3ccccc3n2)cc1,> 100 µM,> 100 µM
C[P+](C)(C)c1ccccc1,> 100 µM,
O=C1c2ccccc2C(=O)N1C/C=N/NS(=O)(=O)c1ccc(Br)cc1,> 100 µM,
NC(=O)c1cn(Cc2ccccc2)c(=O)n1Cc1ccccc1,> 100 µM,
CCOC(=O)C(C)(c1c(C)[nH]c2ccccc12)c1c(C)[nH]c2ccccc12,40.8 µM,
Cc1c(Cl)cccc1NC(=O)c1cccc([N+](=O)[O-])c1O,> 100 µM,
CC1COS(=O)O1 (centres undefined),> 100 µM,
CC1CCC(C(C)(C)c2ccccc2)C(=O)C1 (centres undefined),> 100 µM,

Structure (SMILES),TGI,GI50
O=C(NC1CCCCC1)c1ccc(Nc2ncnc3c2cnn3-c2ccccc2)cc1,> 100 µM,> 100 µM
O=C1CC2CCN(C(=O)c3ccccc3)CC2CCN1 (centres undefined),> 100 µM,
N#CC(C#N)=C1CCCOc2c1ccc1ccccc21,> 100 µM,> 100 µM
CCc1nc(Cl)c(Cl)c(Cl)n1,> 100 µM,
O=C1C=CC(=CC=C2C=CN(CCCCCCCCCCC(=O)NCCCCCCCCCCCC(=O)O)C=C2)C=C1,> 100 µM,
N#Cc1c(-c2ccco2)cc(-c2ccc(N)cc2)[nH]c1=O,> 100 µM,
C=CCC1(C)CCCCC1(O)CS(=O)c1ccccc1 (centres undefined),> 100 µM,
C1COCCSC2=C(SCCO1)SC(=C1SC3=C(SCCOCCOCCS3)S1)S2,> 100 µM,
CC(C)(C)c1cc(C(=O)/C=C/c2ccc(C(=O)O)cc2)cc(C(C)(C)C)c1,12.1 µM,
COc1cc(/C=N\O[Si](C)(C)C(C)(C)C)ccc1O[Si](C)(C)C(C)(C)C,> 100 µM,
CC12CCC(=O)N1c1cccnc1N2 (centres undefined),> 100 µM,
COc1cc2c(cc1OC)C1Cc3cc(OC)c(OC)cc3N1CC2 (centres undefined),> 100 µM,
Cc1sc2c(c1C)C(c1ccc(Cl)cc1)=N[C@@H](CC(=O)Nc1ccc(OCCOCCOCCOCCNc3cccc4c3C(=O)N(C3CCC(=O)NC3=O)C4=O)cc1)c1nnc(C)n1-2 (some centres undefined),> 100 µM,0.0787 µM
O=C1C2[C@@H](C(=O)N1c1ccc(Br)cc1)C13C(=CC2([N+](=O)[O-])[C@@H]2C(=O)N(c4ccc(Br)cc4)C(=O)[C@@H]21)c1ccccc1N3c1ccccc1 (some centres undefined),> 100 µM,
CCOC(=O)C1=C(Nc2ccc(Br)cc2)OCC1=O,> 100 µM,
CCOc1ccc(N=Cc2c3ccccc3nc3ccccc23)cc1,> 100 µM,
Nc1ccc(C2=N/C(=C\c3cccc(N)c3)C(=O)O2)cc1,> 100 µM,
CC(=O)[CH-]C(=O)c1ccccc1.CC(=O)[CH-]C(=O)c1ccccc1.O=S(=O)([O-])c1cc([O-])c2c([O-])cc(S(=O)(=O)[O-])cc2c1.[Na+].[Ti+4],> 100 µM,> 100 µM
Cc1cc(NCCCCNc2ccnc3cc(Cl)ccc23)nc(Nc2ccc(C(=O)N3CCCCC3)cc2)n1,3.04 µM,1.46 µM
NCCN.O=C([O-])[O-].O=C([O-])[O-].[Co+3].[K+],> 100 µM,> 100 µM
C1=NC(N(Cc2ccccc2)Cc2ccccc2)N(Cc2ccccc2)N1 (centres undefined),49.9 µM,

# Tested on: OVCAR-4 ovarian
# Assay: NCI tumour cell line growth inhibition, 48 h
Structure (SMILES),TGI,GI50
CCc1cccc(C)c1NC(=O)CC1C(=O)Nc2ccccc2S1=O (centres undefined),> 100 µM,
Cc1ccc(N2C(=O)N(c3ccc(C)cc3)C3(SC=NN3C)C2=O)cc1 (centres undefined),> 100 µM,
COc1ccc(-c2nn(-c3cccc(Cl)c3)cc2-c2nc(N)[nH]c(=O)c2C#N)cc1,61.9 µM,7.71 µM
O=C1c2ccc3c4ccccc4n(-c4ccccc4)c3c2C(=O)N1c1ccc(Cl)cc1,> 100 µM,
Cc1ccc2c(c1-c1ccccc1)C(=O)OC2,> 100 µM,
CCC[CH2][Sn]1([CH2]CCC)[O]CC(COc2c(Cl)cc(Cl)cc2Cl)[O]1 (centres undefined),3.76 µM,1.91 µM
CSc1ccc2c(cc1=O)[C@@H](NC(=O)c1cc(O)c(O)c(O)c1)CCc1cc(O)c(O)c(O)c1-2,22.7 µM,
COC(=O)C(=O)CC(=O)c1cccc(OC)c1,> 100 µM,
COc1cc2c3c(n(CCCN(CCO)CCO)c(=O)c2cc1OC)-c1cc2c(cc1C3=O)OCO2,3.61 µM,0.842 µM
CNCCn1c(=O)c2cc(OC)c(OC)cc2c2cnc3cc4c(cc3c21)OCO4,2.21 µM,0.0347 µM
O=C(CCN1CCOCC1)Nc1cccc(-n2cc(-c3ccncc3)c(-c3ccc(Cl)c(O)c3)n2)c1,17.7 µM,3.07 µM
COc1cc(-c2nnc3n2NC=C(C(=O)O)S3)cc(OC)c1OC,> 87.5 µM,
c1ccc(NCCSc2nc3ccccc3s2)cc1,> 100 µM,
Oc1ccc(Oc2cnc3ccccc3n2)cc1,> 100 µM,60.3 µM
C[P+](C)(C)c1ccccc1,> 100 µM,
O=C1c2ccccc2C(=O)N1C/C=N/NS(=O)(=O)c1ccc(Br)cc1,> 100 µM,
NC(=O)c1cn(Cc2ccccc2)c(=O)n1Cc1ccccc1,> 100 µM,
CCOC(=O)C(C)(c1c(C)[nH]c2ccccc12)c1c(C)[nH]c2ccccc12,32 µM,
Cc1c(Cl)cccc1NC(=O)c1cccc([N+](=O)[O-])c1O,> 70.1 µM,
CC1COS(=O)O1 (centres undefined),> 100 µM,
CC1CCC(C(C)(C)c2ccccc2)C(=O)C1 (centres undefined),> 100 µM,
O=C1CC2CCN(C(=O)c3ccccc3)CC2CCN1 (centres undefined),> 100 µM,
N#CC(C#N)=C1CCCOc2c1ccc1ccccc21,> 100 µM,> 100 µM

# — PubChem BioAssay (NCI)
